# Molecular target: T1, human metabotropic glutamate 7 receptor (hmGlu7) (Homo sapiens, UniProt Q14831)
# T1 construct: expressed in transfected cells
# Experiment: mGlu7 assay on HEK-expressing human mGlu7: fluorescent cell based Ca2+ mobilization assay (FLIPR), inhibition of EC80 L-AP4 response
# Conditions: HEK-293 cells expressing hmGlu7; EC80 L-AP4 stimulation; mean of at least three independent experiments in duplicate; read-out: Ca2+ Flux (mean IC50)
# From the text: mGlu7 Assay on HEK-Expressing Human mGlu7
# The cDNA encoding the human metabotropic glutamate 7 receptor (hmGlu7), (accession number NM_181874.2, NCBI Nucleotide database browser), was subcloned into an expression vector containing also the hygromycin resistance gene. In parallel, the cDNA encoding a G protein allowing redirection of the activation signal to intracellular calcium flux was subcloned into a different expression vector containing also the Puromycin resistance gene. Transfection of both these vectors into HEK293 cells with PolyFect reagent (Qiagen) according to supplier's protocol, and hygromycin and puromycin treatment allowed selection of antibiotic resistant cells which had integrated stably one or more copies of the plasmids. Positive cellular clones expressing hmGlu7 were identified in a functional assay measuring changes in calcium fluxes in response to glutamate and L-AP4 or known mGlu7 orthosteric antagonists.
# HEK-293 cells expressing hmGlu7 were maintained in media containing DMEM, Fetal Bovine Serum (10%), Glutamax™ (2 mM), penicillin (100 units/mL), streptomycin (100 μg/mL), geneticin (100 μg/mL) and hygromycin-B (40 μg/mL) and puromycin (1 μg/mL) at 37° C. with 5% CO2 in a humidified atmosphere.
# Fluorescent Cell Based-Ca^2+ Mobilization Assay Human mGlu7 HEK-293 cells were plated out 24 hours prior to a fluorescent cell-based calcium mobilization assay using FLIPR^384 assay (Molecular Device, Sunnyvale, CA, USA) in black-walled, clear-bottomed, poly-L-ornithine-coated 384-well plates at a density of 25,000 cells/well in a glutamine/glutamate free DMEM medium containing fetal bovine serum (10%), penicillin (100 units/mL), streptomycin (100 μg/mL) and doxycyline (1 μg/ml) at 37° C. with 5% CO2 in a humidified atmosphere.
# On the day of the assay, the medium was aspirated and the cells were loaded with a 3 μM solution of Fluo4-AM (LuBioScience, Lucerne, Switzerland) in 0.03% pluronic acid. After 1 hour at 37° C./5% CO2, the non incorporated dye was removed by washing cell plate with the assay buffer. All assays were performed in a pH 7.4 buffered-solution containing 20 mM HEPES, 143 mM NaCl, 6 mM KCl, 1 mM MgSO4, 1 mM CaCl2, 0.125 mM sulfinpyrazone and 0.1% glucose.
# After 10 s of basal fluorescence recording, various concentrations of the compounds of the invention were added to the cells. Changes in fluorescence levels were first monitored for 180 s in order to detect any agonist activity of the compounds. Then the cells were stimulated by an EC80 L-AP4 concentration for an additional 110 s in order to measure inhibiting activities of the compounds of the invention. EC80 L-AP4 concentration is the concentration giving 80% of the maximal glutamate response.
# The concentration-response curves of L-AP4 or representative compounds of the present invention were generated using the Prism GraphPad software (Graph Pad Inc, San Diego, USA). The curves were fitted to a four-parameter logistic equation: […]
# allowing determination of IC50 values.
# The Table 3 below represents the mean IC50 obtained from at least three independent experiments of selected molecules performed in duplicate.
# T1 sequence (Q14831 35-922 isoform Q14831-2): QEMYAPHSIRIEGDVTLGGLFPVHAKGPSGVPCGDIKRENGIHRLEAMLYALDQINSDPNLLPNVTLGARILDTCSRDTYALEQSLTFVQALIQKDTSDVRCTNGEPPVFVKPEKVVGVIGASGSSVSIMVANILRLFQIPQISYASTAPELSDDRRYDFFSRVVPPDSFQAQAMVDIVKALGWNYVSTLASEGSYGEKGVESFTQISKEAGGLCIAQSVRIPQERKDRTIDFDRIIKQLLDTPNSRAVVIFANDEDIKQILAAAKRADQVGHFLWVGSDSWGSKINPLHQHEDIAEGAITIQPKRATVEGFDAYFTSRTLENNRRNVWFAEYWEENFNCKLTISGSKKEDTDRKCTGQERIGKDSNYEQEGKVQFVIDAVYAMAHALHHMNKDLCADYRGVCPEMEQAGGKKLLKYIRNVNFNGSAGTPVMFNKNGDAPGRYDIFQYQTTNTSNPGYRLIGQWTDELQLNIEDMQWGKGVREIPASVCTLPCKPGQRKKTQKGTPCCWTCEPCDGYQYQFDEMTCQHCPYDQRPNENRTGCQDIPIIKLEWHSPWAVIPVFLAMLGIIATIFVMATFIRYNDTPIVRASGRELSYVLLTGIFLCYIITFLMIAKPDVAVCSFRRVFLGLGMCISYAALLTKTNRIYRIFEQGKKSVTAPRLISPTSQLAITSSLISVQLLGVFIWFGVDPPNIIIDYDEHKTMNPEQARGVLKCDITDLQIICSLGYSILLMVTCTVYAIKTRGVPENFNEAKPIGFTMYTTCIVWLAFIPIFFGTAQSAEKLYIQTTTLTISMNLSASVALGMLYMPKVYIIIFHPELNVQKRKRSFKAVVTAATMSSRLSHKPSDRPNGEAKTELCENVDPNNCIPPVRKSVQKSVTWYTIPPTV
row,SMILES,IC50 [nM]
1,COc1cc(-n2c(C)c3cnn(-c4ccccn4)c(=O)c3c2C)ccn1 [1-62],1000 to 10000
2,Cc1c2cnn(-c3cccnc3)c(=O)c2c(C)n1-c1cccc(N2CCC2)c1 [1-164],< 100
3,COc1cccc(-n2c(C)c3cnn(-c4ccc5ccccc5n4)c(=O)c3c2C)c1 [1-61],100 to 1000
4,Cc1c2cnn(-c3ccccc3)c(=O)c2c(C)n1-c1cccc(N(C)C)c1 [1-35],< 100
5,Cc1cnc(-n2ncc3c(C)n(-c4cccc(N5CCC5)c4)c(C)c3c2=O)nc1 [1-228],< 100
6,Cc1c2cnn(-c3ccccn3)c(=O)c2c(C)n1-c1cccc(N2CC(F)(F)C2)c1 [1-153],100 to 1000
7,Cc1ccc(-n2ncc3c(C)n(-c4ccccc4)c(C)c3c2=O)cc1 [1-15],< 100
8,Cc1c2cnn(-c3cccc(F)c3)c(=O)c2c(C)n1-c1ccccc1 [1-10],100 to 1000
9,Cc1c2cnn(-c3ccccn3)c(=O)c2c(C)n1-c1cccc(OC(C)C)c1 [1-139],100 to 1000
10,Cc1c2cnn(-c3ccc(I)cc3)c(=O)c2c(C)n1-c1cccc(N2CCC2)c1 [1-181],1000 to 10000
11,Cc1c2cnn(-c3ccccn3)c(=O)c2c(C)n1-c1cc(F)cc(N2CCC2)c1 [1-195],< 100
12,COc1ccc(-n2ncc3c(C)n(-c4ccccc4)c(C)c3c2=O)cn1 [1-52],100 to 1000
13,Cc1cc(-n2ncc3c(C)n(-c4cccc(N5CCC5)c4)c(C)c3c2=O)ccn1 [1-182],< 100
14,Cc1c2cnn(-c3cccc(S(C)(=O)=O)c3)c(=O)c2c(C)n1-c1cccc(N2CCC2)c1 [1-151],< 100
15,COc1cccc(-n2c(C)c3cnn(-c4ncc(C)cn4)c(=O)c3c2C)c1Cl [1-204],100 to 1000
16,COc1cccc(-n2c(C)c3cnn(-c4cc[nH]c(=O)c4)c(=O)c3c2C)c1 [1-129],100 to 1000
17,COc1ccc(F)c(-n2c(C)c3cnn(-c4ccccn4)c(=O)c3c2C)c1 [1-194],100 to 1000
18,COc1cnc(-n2ncc3c(C)n(-c4cccc(N5CCC5)c4)c(C)c3c2=O)nc1 [1-224],< 100
19,Cc1cnc(-n2ncc3c(C)n(-c4cccc(OC5CC5)c4C)c(C)c3c2=O)nc1 [1-205],< 100
20,COc1ccccc1-n1c(C)c2cnn(-c3ccccn3)c(=O)c2c1C [1-193],1000 to 10000
21,COc1ccc(-n2c(C)c3cnn(-c4ccc(CO)cc4)c(=O)c3c2C)cc1 [1-98],100 to 1000
22,Cc1c2cnn(-c3ncc(F)cn3)c(=O)c2c(C)n1-c1cc(N2CCC2)ccc1F [1-218],100 to 1000
23,COc1ccc(-n2c(C)c3cnn(-c4cccnc4)c(=O)c3c2C)cc1 [1-46],100 to 1000
24,Cc1c2cnn(-c3ccccn3)c(=O)c2c(C)n1-c1ccc2c(c1)OCO2 [1-55],100 to 1000

row,SMILES,IC50 [nM]
1,Cc1c2cnn(-c3ncccc3F)c(=O)c2c(C)n1-c1cc(F)cc(N2CCC2)c1 [1-209],< 100
2,Cc1c2cnn(-c3ccc(CO)cc3)c(=O)c2c(C)n1-c1ccccc1 [1-92],100 to 1000
3,COc1ccnc(-n2ncc3c(C)n(-c4cccc(N5CCC5)c4)c(C)c3c2=O)c1 [1-229],100 to 1000
4,Cc1cccc(-n2c(C)c3cnn(-c4ccccn4)c(=O)c3c2C)c1 [1-45],100 to 1000
5,COc1cccc(-n2c(C)c3cnn(-c4ccc(C(F)(F)F)cn4)c(=O)c3c2C)c1 [1-122],100 to 1000
6,Cc1cccc(-n2ncc3c(C)n(-c4cccc(N5CCC5)c4)c(C)c3c2=O)n1 [1-154],100 to 1000
7,Cc1c2cnn(-c3ccccc3)c(=O)c2c(C)n1-c1cccc(N2CCC2)c1 [1-141],< 100
8,"Cc1c2cnn(-c3ccc(N4CCCC4)cc3)c(=O)c2c(C)n1-c1cccc(N2CCC2)c1 [1-168, 6-(3-(Azetidin-1-yl)phenyl)-5,7-dimethyl-2-(4-(pyrrolidin-1-yl)phenyl)-2,6-dihydro-1H-pyrrolo[3,4-d]pyridazin-1-one]",100 to 1000
9,COCc1cccc(-n2c(C)c3cnn(-c4ccccn4)c(=O)c3c2C)c1 [1-107],1000 to 10000
10,Cc1c2cnn(-c3ccc(N4CCOCC4)cc3)c(=O)c2c(C)n1-c1cccc(N2CCC2)c1 [1-219],100 to 1000
11,Cc1c2cnn(-c3ccc(S(C)(=O)=O)cc3)c(=O)c2c(C)n1-c1ccccc1 [1-30],100 to 1000
12,Cc1c2cnn(-c3ccc(C(=O)CNC(=O)OC(C)(C)C)cc3)c(=O)c2c(C)n1-c1cccc(N2CCC2)c1 [1-184],100 to 1000
13,CNC(=O)c1ccc(-n2ncc3c(C)n(-c4cccc(OC)c4)c(C)c3c2=O)cc1 [1-113],100 to 1000
14,Cc1c2cnn(-c3ncccc3F)c(=O)c2c(C)n1-c1cccc2c1ccn2C1CC1 [1-213],< 100
15,COCc1ccc(-n2ncc3c(C)n(-c4cccc(OC)c4)c(C)c3c2=O)cc1 [1-128],100 to 1000
16,COc1cccc(-n2c(C)c3cnn(-c4ccccc4F)c(=O)c3c2C)c1 [1-149],< 100
17,CCc1cccc(-n2c(C)c3cnn(-c4ccccn4)c(=O)c3c2C)c1 [1-85],100 to 1000
18,Cc1ccc(-n2c(C)c3cnn(-c4ccccn4)c(=O)c3c2C)cc1 [1-48],100 to 1000
19,COc1cccc(-n2c(C)c3cnn(-c4cccc(C#N)c4)c(=O)c3c2C)c1 [1-124],100 to 1000
20,Cc1c2cnn(-c3cccc(C#N)c3)c(=O)c2c(C)n1-c1ccccc1 [1-16],100 to 1000
21,COc1cccc(-n2c(C)c3cnn(-c4cccnc4)c(=O)c3c2C)c1 [1-41],100 to 1000
22,COCc1cccc(-n2ncc3c(C)n(-c4cccc(OC)c4)c(C)c3c2=O)c1 [1-116],< 100
23,COc1cccc(-n2c(C)c3cnn(-c4ccc(OC)nc4)c(=O)c3c2C)c1 [1-127],100 to 1000
24,COc1ccc(-n2c(C)c3cnn(-c4ccc(CNC(C)=O)cc4)c(=O)c3c2C)cc1 [1-106],100 to 1000

row,SMILES,IC50 [nM]
1,COc1cccc(-n2c(C)c3cnn(-c4ccc(S(N)(=O)=O)cc4)c(=O)c3c2C)c1 [1-120],< 100
2,Cc1ccnc(-n2ncc3c(C)n(-c4cccc(N5CCC5)c4)c(C)c3c2=O)c1 [1-161],< 100
3,Cc1c2cnn(-c3ncc(F)cn3)c(=O)c2c(C)n1-c1cccc(N2CCC2)c1 [1-226],< 100
4,Cc1c2cnn(-c3ncccc3F)c(=O)c2c(C)n1-c1cc(N2CCC2)ccc1F [1-217],< 100
5,Cc1c2cnn(-c3ccccn3)c(=O)c2c(C)n1-c1ccc(Cl)cc1 [1-3],100 to 1000
6,Cc1c2cnn(-c3ccccn3)c(=O)c2c(C)n1-c1cccc(N(C)C)c1 [1-110],100 to 1000
7,COc1cccc(-n2c(C)c3cnn(-c4ccc(N5CCOCC5)cc4)c(=O)c3c2C)c1 [1-70],100 to 1000
8,CC(=O)c1ccc(-n2c(C)c3cnn(-c4ccccn4)c(=O)c3c2C)cc1 [1-132],1000 to 10000
9,COc1cccc(-n2c(C)c3cnn(-c4ncc(C5CC5)cn4)c(=O)c3c2C)c1C [1-207],100 to 1000
10,Cc1ccccc1-n1c(C)c2cnn(-c3ccccc3)c(=O)c2c1C [1-7],100 to 1000
11,COc1cc(OC)cc(-n2c(C)c3cnn(-c4ccccn4)c(=O)c3c2C)c1 [1-175],100 to 1000
12,COc1ccc(-n2c(C)c3cnn(-c4ccc(OC)cc4)c(=O)c3c2C)cc1 [1-103],100 to 1000
13,Cc1c2cnn(-c3ccccn3)c(=O)c2c(C)n1-c1ccc(C2CC2)cc1 [1-186],100 to 1000
14,Cc1c2cnn(-c3ccccn3)c(=O)c2c(C)n1-c1cccc2c1CCN2C [1-210],100 to 1000
15,Cc1c2cnn(-c3ccccn3)c(=O)c2c(C)n1-c1cccc(C2CC2)c1 [1-137],100 to 1000
16,COc1cccc(-n2c(C)c3cnn(-c4ccc(CCCO)cc4)c(=O)c3c2C)c1 [1-118],< 100
17,COc1ccc(-n2c(C)c3cnn(-c4ccccn4)c(=O)c3c2C)cc1 [1-47],100 to 1000
18,Cc1ccc(-n2ncc3c(C)n(-c4cccc(N5CCC5)c4)c(C)c3c2=O)nc1 [1-155],< 100
19,Cc1c2cnn(-c3cccnc3)c(=O)c2c(C)n1-c1cccc(N2CCOCC2)c1 [1-64],1000 to 10000
20,Cc1c2cnn(C3CCCC3)c(=O)c2c(C)n1-c1cccc(N2CCC2)c1 [1-190],100 to 1000
21,COc1ccccc1-n1ncc2c(C)n(-c3cccc(N4CCC4)c3)c(C)c2c1=O [1-176],100 to 1000
22,COCc1cccc(-n2c(C)c3cnn(-c4ccccc4)c(=O)c3c2C)c1 [1-108],100 to 1000

# — patent US20240262833A1, “FUSED HETEROCYCLIC DERIVATIVES AS NEGATIVE ALLOSTERIC MODULATORS OF MGLU7 RECEPTOR” (Addex Pharma S.A., priority 2021, published 2024)
